# Reference: patent US9302999B2, “Substituted triazoles as herbicides” (E. I. DU PONT DE NEMOURS AND COMPANY, priority 2012, dated 2016)
# Tests used:
# Format in all cases: in vivo
# soybean (Glycine max) = assay: Test F pre-/postemergence: soybean
# Method in brief: (§1)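 Preemergence treatment of seeds sown in silt loam soil, and postemergence treatment of plants 2–18 cm tall (1- to 4-leaf stage), with compounds in non-phytotoxic solvent plus surfactant. Greenhouse 14–21 days, then visual rating versus controls on 0–100 scale (100 = complete control).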
# [1] = test system: ryegrass, Italian (Italian ryegrass, Lolium multiflorum); assay: Test F pre-/postemergence: ryegrass, Italian
# Excerpt: (§2) Seeds of plant species selected from corn (Zea mays), soybean (Glycine max), velvetleaf (Abutilon theophrasti), lambsquarters (Chenopodium album), poinsettia, wild (wild poinsettia, Euphorbia heterophylla), pigweed, palmer (palmer pigweed, Amaranthus palmeri), waterhemp (common waterhemp, Amaranthus rudis), surinam grass (Brachiaria decumbens), crabgrass, Brazil (Brazilian crabgrass, Digitaria horizontalis), panicum, fall (fall panicum Panicum dichotomiflorum), crabgrass, large (large crabgrass, Digitaria sanguinalis), foxtail, giant (giant foxtail, Setaria faberii), foxtail, green (green foxtail Setaria viridis), goosegrass (Eleusine indica), ragweed (common ragweed, Ambrosia elatior), barnyardgrass (Echinochloa crus-galli), sandbur (southern sandbur, Cenchrus echinatus), arrowleaf sida (Sida rhombifolia), ryegrass, Italian (Italian ryegrass, Lolium multiflorum), dayflower, VA (Virginia (VA) dayflower, Commelina virginica), field bindweed (Convolvulus arvensis), cocklebur (common cocklebur, Xanthium strumarium), morningglory (Ipomoea coccinea), nightshade (eastern black nightshade, Solanum ptycanthum), kochia (Kochia scoparia), nutsedge, yellow (yellow nutsedge, Cyperus esculentus), johnsongrass (Sorghum halepense), smartweed (ladysthumb smartweed, Polygonum persicaria), and beggarticks (hairy beggarticks, Bidens pilosa), were planted into a silt loam soil and treated preemergence with test chemicals formulated in a non-phytotoxic solvent mixture which included a surfactant. At the same time, plants selected from these crop and weed species and also pigweed (Amaranthus retroflexus), waterhemp_RES1 (ALS/Triazine resistant common waterhemp, Amaranthus rudis) and waterhemp_RES2 (ALS/HPPD resistant common waterhemp, Amaranthus rudis) were planted in pots containing a planting medium comprising spaghnum peat moss, vermiculite, wetting agent and starter nutrients treated with postemergence applications of some of the test chemicals formulated in the same manner. Plants ranged in height from 2 to 18 cm for postemergence treatments (1- to 4-leaf stage).
# (§3) Treated plants and controls were maintained in a greenhouse for 14 to 21 days, after which time all species were compared to controls and visually evaluated. Plant response ratings, summarized in Table E, are based on a scale of 0 to 100 where 0 is no effect and 100 is complete control. A dash (-) response means no test result.
# [2] = test system: nutsedge, yellow (yellow nutsedge, Cyperus esculentus); assay: Test F pre-/postemergence: nutsedge, yellow; conditions: Preemergence
# Excerpt: as §2, §3
# [3] = test system: johnsongrass (Sorghum halepense); assay: Test F pre-/postemergence: johnsongrass; conditions: Preemergence
# Method in brief: as §1
# [4] = test system: waterhemp (common waterhemp, Amaranthus rudis); assay: Test F pre-/postemergence: waterhemp
# Method in brief: as §1
# [5] = Postemergence, 250 g ai/ha, scale 0 to 100
# [6] = Postemergence, 16 g ai/ha, scale 0 to 100
# [7] = Postemergence, 31 g ai/ha, scale 0 to 100
# [8] = Postemergence, 62 g ai/ha, scale 0 to 100
# [9] = Postemergence, 125 g ai/ha, scale 0 to 100
# [10] = Preemergence, 16 g ai/ha, scale 0 to 100, 0 no effect, 100 complete control
# [11] = Preemergence, 31 g ai/ha, scale 0 to 100, 0 no effect, 100 complete control
# [12] = Preemergence, 250 g ai/ha, scale 0 to 100
# [13] = Preemergence, 125 g ai/ha, scale 0 to 100
# [14] = 16 g ai/ha, scale 0 to 100, 0 no effect, 100 complete control
# [15] = 31 g ai/ha, scale 0 to 100, 0 no effect, 100 complete control
SMILES,"Plant response rating, Soybean (soybean (Glycine max); [10])","Plant response rating, Soybean (soybean (Glycine max); [11])","Plant response rating, Soybean (soybean (Glycine max); [12])","Plant response rating, Ryegrass, Italian [1, 10]","Plant response rating, Ryegrass, Italian [1, 11]","Plant response rating, Ryegrass, Italian [1, 13]","Plant response rating, Ryegrass, Italian [1, 12]","Plant response rating, Nutsedge, Yellow [2, 14]","Plant response rating, Nutsedge, Yellow [2, 15]","Plant response rating, Nutsedge, Yellow ([2]; 125 g ai/ha, scale 0 to 100)","Plant response rating, Nutsedge, Yellow ([2]; 250 g ai/ha, scale 0 to 100)","Plant response rating, Johnsongrass [3, 14]","Plant response rating, Johnsongrass [3, 15]","Plant response rating, Johnsongrass ([3]; 62 g ai/ha, scale 0 to 100)","Plant response rating, Johnsongrass ([3]; 125 g ai/ha, scale 0 to 100)","Plant response rating, Johnsongrass ([3]; 250 g ai/ha, scale 0 to 100)","Plant response rating, Waterhemp [4, 10]","Plant response rating, Waterhemp [4, 11]","Plant response rating, Waterhemp [4, 13]","Plant response rating, Waterhemp [4, 12]",also measured
CCc1nn(-c2ccc(C(F)(F)F)cc2)nc1Oc1ccnc(C(F)(F)F)c1 [Compound 169],0,0,20,0,0,100,100,0,20,25,25,0,0,20,50,80,60,80,100,100,"Plant response rating, Soybean (soybean (Glycine max); [5]): 50; Plant response rating, Soybean (soybean (Glycine max); [6]): 20; Plant response rating, Soybean (soybean (Glycine max); [7]): 20; Plant response rating, Soybean (soybean (Glycine max); [8]): 30; Plant response rating, Soybean (soybean (Glycine max); [9]): 40; Plant response rating, Ryegrass, Italian [1, 5]: 30; Plant response rating, Ryegrass, Italian [1, 6]: 0; Plant response rating, Ryegrass, Italian [1, 7]: 0; Plant response rating, Ryegrass, Italian [1, 8]: 20; Plant response rating, Ryegrass, Italian [1, 9]: 20; Plant response rating, Waterhemp [4, 5]: 100; Plant response rating, Waterhemp [4, 6]: 75; Plant response rating, Waterhemp [4, 7]: 90; Plant response rating, Waterhemp [4, 8]: 90; Plant response rating, Waterhemp [4, 9]: 100"
CCc1nn(-c2ccc(F)c(F)c2)nc1Oc1ccnc(C(F)(F)F)c1 [Compound 171],0,0,20,0,0,25,50,0,0,0,0,0,0,10,65,75,0,95,100,100,"Plant response rating, Soybean (soybean (Glycine max); [13]): 0"
